Assay results reported in US20130064870A1, “DRY POWDER INHALATION COMPOSITION” (SUN PHARMA ADVANCED RESEARCH COMPANY LIMITED, priority 2010, published 2013).
Where “and” joins values, the source holds several entries; their conditions need not be identical. Equal entries are not always repeated.

Tests used:
Assay type in all cases: physicochemical
[1] = Polymorphic purity by differential scanning calorimetry (DSC)
Procedure: The phrase ‘substantially free of polymorph II’ means the micronized salmeterol xinafoate having not more than 5%, preferably not more than 3%, most preferably not more than 1% of polymorph II. The polymorphic purity of the salmeterol xinafoate can be determined by any known analytical method. According to the present invention, the polymorphic purity is determined by differential scanning calorimeter (DSC). The melting points of polymorph I and polymorph II are distinct and this method can determine the presence of two.
In one embodiment, the salmeterol xinafoate was obtained by micronizing salmeterol xinafoate by milling in a jet mill with grinding parameters are as follows: grinding pressure: 1-5 bars, feed pressure: 2-10 bars, feed rate of 0.1-10 g/min, followed by subjecting the micronized material to a temperature of about 50° C. to 90° C., wherein the conditioning cycle is carried out for a time period o about 1 hour to 120 hours, preferably, 1 to 50 hours, most preferably, 20 hrs to 40 hrs. The polymorphic purity of the resultant salmeterol xinafoate so obtained was determined by recording the differential scanning calorimetry (See FIGS. 3-5).
The results of the polymorphic purity were determined by differential scanning calorimeter and are tabulated below

[2] = Mean particle size (D50) by laser light diffraction
Procedure: The term ‘mean particle size’ as used herein means the particle size distribution of 50% of the population of the particles is less than the specified value. The particle size was measured using laser light diffraction method of particle size analysis.

Tapped density = assay: Tapped density
Text: The term ‘tapped density’ as used herein means that density attained after mechanically tapping a receptacle containing the powder sample.

[3] = In vitro cascade impactor test (fine particle fraction/dose, MMAD, GSD, deposition), USP <601>; settings: applicant's patented device
Text: A cascade impactor is a multi-stage sampling device for determining the size distribution of a particulate aerosol. The aerosol flows into the impactor whereupon it impinges upon a sequence of solids discs. Each disc (which represents a ‘stage’) is contained within a flow chamber and each chamber is connected in a vertical arrangement to the previous and next chamber in the sequence. Larger particles impact on the first disc and are captured. The sampling velocity increases for each successive chamber/disc so that successively smaller particles are collected. The final stage is typically a fine filter septum. Up to 10 stages are often used which divides the size distribution into an equivalent number of portions. The present invention may use eight Stage Sampler which meets the guidelines of the various world pharmacopoeias (e.g., United States Pharmacopoeia Chapter 601 “USP <601>”) to characterize metered-dose (MDI) and dry powder-dose inhalers (DPI), nebulizers, nasal sprays and other pulmonary drugs or a Next generation impactor (NGI) by Anderson. The testing of inhalation drugs goes hand and hand with cascade impactors, the size ranges collected are considered inhalable (generally <10 μm), just as the inhalation drugs should consistently arrive within the respiratory system into their target regions, the various stages represent the cut-off sizes when deposition may occur within the lungs.
In order to evaluate the effect of the dry powder inhalation composition itself, the composition was delivered via two different inhalation devices namely, a marketed inhalation device, namely, such as for example Rotahaler® and the applicant's own patented device. The % fine particle fraction and mass mean aerodynamic diameter was determined by testing in vitro in cascade impactor. The therapeutic efficacy of the composition of the present invention in terms of fine particle fraction was determined by a cascade impaction method official in the United States Pharmacopoeia, chapter <601>.
The conditioned micronized salmeterol xinafoate having mean particle size of […] and a tapped density in the range of 0.20 g·cm^−3 to 0.45 g·cm^−3 was tested for fine particle fraction, mass mean aerodynamic diameter in a cascade impactor. The composition was delivered using the applicant's patented device as described in the description. The results of the in-vitro testing are provided below in Table 2:
The composition of dry powder inhalation was subjected to fine particle dose determination. This was determined according to the procedure given in USP chapter <601>. The fine particle fraction was measured in terms of deposition at various stages as per the pharmacopoeial method. […]

[4] = Polymorphic purity by differential scanning calorimetry (DSC); settings: micronized, conditioned 80 hr at 40° C., 80 bar, CO2
[5] = micronized, before conditioning at 40° C./80 bar CO2
[6] = micronized, conditioned 40 hr at 85° C., air, no pressure
[7] = micronized, not conditioned (FIG. 3)
[8] = un-micronized salmeterol xinafoate (FIG. 2)
[9] = batch D50 4.02, tapped density 0.25
[10] = batch D50 5.99, tapped density 0.43

% polymorph I [1, 5]: 44.18%
% polymorph II [1, 5]: 34.34%
% Salmeterol xinafoate Polymorph form I ([1]; micronized, conditioned 24 hr at 85° C., air, no pressure): 92.78%
% Salmeterol xinafoate Polymorph form I [1, 6]: 96.40%
% Salmeterol xinafoate Polymorph form II [1, 6]: 3.66% and 3.60%
% polymorph I [1, 7]: 69.20%
% polymorph II [1, 7]: 30.80%
% polymorph form I [1, 8]: 88.8%
% polymorph form II [1, 8]: 11.20%
Mean particle size D50 ([2]; conditioned micronized batch with tapped density 0.25): about 4.02 μms
Mean particle size D50 ([2]; conditioned micronized batch with tapped density 0.25, listed as salmeterol xinofoate): 4.02 μms
Mean particle size D50 ([2]; conditioned micronized batch with tapped density 0.43): about 6 μms
Mean particle size D50 ([2]; conditioned micronized batch with tapped density 0.43, listed as salmeterol xinofoate): 5.99 μms
Tapped density (Tapped density; conditioned micronized batch with D50 4.02): 0.25 g/mL
Tapped density (Tapped density; conditioned micronized batch with D50 5.99): 0.43 g/mL
% FPF Mean [3, 9]: 41.115%
GSD Mean [3, 9]: 1.747
% FPF Mean [3, 10]: 20.91%
GSD Mean [3, 10]: 1.734
% Salmeterol xinafoate Polymorph form I [4]: 85.95%
% Salmeterol xinafoate Polymorph form II [4]: 9.09%
SMILES: OCc1cc(C(O)CNCCCCCCOCCCCc2ccccc2)ccc1O (stereo not drawn) [salmeterol xinafoate]
